{
  "source": "patent US12121514B2",
  "about": "“Nonselective metabotropic glutamate receptor activators for treatment of attention deficit disorder and 22Q syndrome” (THE CHILDREN'S HOSPITAL OF PHILADELPHIA, priority 2015, dated 2024)",
  "tested_on": "adolescent subjects with ADHD and at least one genetic alteration in an mGluR network gene",
  "experiment": "Vanderbilt ADHD score (items 1-18, parent), Phase Ib trial of NFC-1",
  "format": "in vivo, human",
  "description": "The Vanderbilt Rating Scale is a measure that can be completed by parents or teachers (separate forms, see Vanderbilt Rating Scale Parents and Vanderbilt Rating Scale Teachers). The Vanderbilt scale rates the child's behavior on items such as attention, finishing tasks, hyperactivity, difficulty waiting, and measures of conduct or oppositional defiant disorders—as well as measures of overall school performance and interactions with others. The first 18 items on the Vanderbilt scale correspond to those of the ADHD Rating Scale IV above while the Vanderbilt scale also includes items 19-47 related to other mental disorders including ODD (items 19-26), conduct disorder (items 27-40), anxiety (items 41, 42, and 47), and depression (items 43-46). Each of the behavioral assessment items on the Vanderbilt Scale are rated 0, 1, 2, or 3, with 0=never occurring; 1=occasionally, 2=often, and 3=very often. Thus, the ADHD Rating Scale IV, ADHD Rating Scale V, and items 1-18 of the Vanderbilt Rating Scale are equivalent scales, while additional items on the Vanderbilt Scale assess co-morbid phenotypes and disorders.\nEach of the items are rated on a scale of 0, 1, 2, or 3, with 0=never; 1=occasionally, 2=often, and 3=very often. A total score of 0 to 54 is computed based on the answers to the 18 questions.\nAs used herein an “ADHD rating scale score,” “ADHD score” or “Vanderbilt ADHD score” are used interchangeably to refer to the computed score of the 18 items of the ADHD Rating Scale IV or V or the first 18 items of the Vanderbilt Rating Scale in any of their associated versions, e.g., for parent, teacher, or clinician to complete, and for a pediatric subject or adult subject. Clinical trials may assess the impact of drug or placebo on the ADHD score or Vanderbilt ADHD score (i.e. the score of 0 to 54 based on the first 18 items in the ADHD or Vanderbilt rating scale). In some cases, results of a clinical trial population may be analyzed by comparing the average score or a percentage change in score over time of administration of drug.\nAn open-label Phase Ib clinical trial was initiated to investigate the safety, pharmacokinetics and efficacy of NFC-1 (fasoracetam monohydrate) in adolescent subjects between the ages of 12 and 17 previously diagnosed with ADHD who also had at least one genetic alteration in an mGluR network gene.\nDose-escalation phase of the trial followed the PK and initial safety assessment and ran over a 5-week period. During week 1, all subjects were administered placebo capsules twice daily. After one week of placebo treatment, patients were started on 50 mg bid NFC-1 for 1 week. If safety and responsiveness data from prior dose level of fasoracetam indicated it was appropriate, subjects were then escalated to the next higher dose (100, 200, or 400 mg). […] Of the 30 trial subjects, 3 received a maximum dose of 100 mg, 9 received a maximum dose of 200 mg, and the remaining 18 received a maximum dose of 400 mg.\nAll efficacy assessments, except actigraphy, were made at study enrollment (“enrollment baseline”) and again, including actigraphy, once-per-week for the placebo week (“week 1” or “placebo baseline”) and at each of the 4 weeks of NFC-1 treatment. These efficacy measures include items 1-18 of the Vanderbilt scale assessing symptoms related to inattentiveness and hyperactivity-impulsiveness as well as additional questions 19-47 of the Vanderbilt scale assessing other behavioral symptoms (conducted by parent), actigraphy for quantitative measurement of activity, Quotient® ADHD test for objective measurement of micro-motion and shifts in attention state, PERMP-Math test, and CGI-I and CGI-S for assessment of global functioning. […]",
  "key": {"[1]": {"settings": "relative to placebo (week 1) baseline, Tier 3, Week 3, up to 100 mg bid"}, "[2]": {"settings": "relative to placebo (week 1) baseline, Tier 3, Week 4, 200 mg bid"}, "[3]": {"settings": "relative to placebo (week 1) baseline, Tier 3, Week 4, up to 200 mg bid"}, "[4]": {"settings": "relative to placebo (week 1) baseline, Tier 3, Week 5, 400 mg bid"}, "[5]": {"settings": "relative to placebo (week 1) baseline, Tier 3, Week 5, up to 400 mg bid"}, "[6]": {"settings": "relative to pre-study (enrollment) baseline, Overall, Week 2, 50 mg bid"}, "[7]": {"settings": "relative to pre-study (enrollment) baseline, Overall, Week 3, 100 mg bid"}, "[8]": {"settings": "relative to pre-study (enrollment) baseline, Overall, Week 3, up to 100 mg bid"}, "[9]": {"settings": "relative to pre-study (enrollment) baseline, Overall, Week 4, 200 mg bid"}, "[10]": {"settings": "relative to pre-study (enrollment) baseline, Overall, Week 4, up to 200 mg bid"}, "[11]": {"settings": "relative to pre-study (enrollment) baseline, Overall, Week 5, 400 mg bid"}, "[12]": {"settings": "relative to pre-study (enrollment) baseline, Tier 1, Week 2, 50 mg bid"}, "[13]": {"settings": "relative to pre-study (enrollment) baseline, Tier 1, Week 3, 100 mg bid"}, "[14]": {"settings": "relative to pre-study (enrollment) baseline, Tier 1, Week 3, up to 100 mg bid"}, "[15]": {"settings": "relative to pre-study (enrollment) baseline, Tier 1, Week 4, 200 mg bid"}},
  "note": "Values joined by “and” are separate entries in the source; they are usually repeats but may differ in a detail not shown here. Equal values may be shown once.",
  "data": [
    {"compound": "O=C1CC[C@H](C(=O)N2CCCCC2)N1", "note": "[NFC-1, fasoracetam monohydrate]", "values": [
      {"measurement": "Percent of subjects demonstrating robust improvement in Vanderbilt ADHD score (at least 40% decrease)", "setting": "[1]", "value": 0, "unit": "%"},
      {"measurement": "Percent of subjects with improvement in Vanderbilt ADHD score (at least 25% decrease)", "setting": "[1]", "value": 20, "unit": "%"},
      {"measurement": "Percent of subjects completing the dose escalation to 400 mg bid that show improvement in Vanderbilt ADHD scores (at least 25% decrease)", "setting": "[2]", "value": 0, "unit": "%"},
      {"measurement": "Percent of subjects completing the dose escalation to 400 mg bid that show robust improvement in Vanderbilt ADHD scores (at least 40% decrease)", "setting": "[2]", "value": 0, "unit": "%"},
      {"measurement": "Percent of subjects demonstrating robust improvement in Vanderbilt ADHD score (at least 40% decrease)", "setting": "[3]", "value": 0, "unit": "%"},
      {"measurement": "Percent of subjects with improvement in Vanderbilt ADHD score (at least 25% decrease)", "setting": "[3]", "value": 0, "unit": "%"},
      {"measurement": "Percent of subjects completing the dose escalation to 400 mg bid that show improvement in Vanderbilt ADHD scores (at least 25% decrease)", "setting": "[4]", "value": 0, "unit": "%"},
      {"measurement": "Percent of subjects completing the dose escalation to 400 mg bid that show robust improvement in Vanderbilt ADHD scores (at least 40% decrease)", "setting": "[4]", "value": 0, "unit": "%"},
      {"measurement": "Percent of subjects demonstrating robust improvement in Vanderbilt ADHD score (at least 40% decrease)", "setting": "[5]", "value": 0, "unit": "%"},
      {"measurement": "Percent of subjects with improvement in Vanderbilt ADHD score (at least 25% decrease)", "setting": "[5]", "value": 0, "unit": "%"},
      {"measurement": "Percent of subjects completing the dose escalation to 400 mg bid that show improvement in Vanderbilt ADHD scores (at least 25% decrease)", "setting": "[6]", "value": 41, "unit": "%"},
      {"measurement": "Percent of subjects completing the dose escalation to 400 mg bid that show robust improvement in Vanderbilt ADHD scores (at least 40% decrease)", "setting": "[6]", "value": 35, "unit": "%"},
      {"measurement": "Percent of subjects demonstrating robust improvement in Vanderbilt ADHD score (at least 40% decrease)", "setting": "[6]", "value": 32, "unit": "%"},
      {"measurement": "Percent of subjects with improvement in Vanderbilt ADHD score (at least 25% decrease)", "setting": "[6]", "value": 43, "unit": "%"},
      {"measurement": "Percent of subjects completing the dose escalation to 400 mg bid that show improvement in Vanderbilt ADHD scores (at least 25% decrease)", "setting": "[7]", "value": 53, "unit": "%"},
      {"measurement": "Percent of subjects completing the dose escalation to 400 mg bid that show robust improvement in Vanderbilt ADHD scores (at least 40% decrease)", "setting": "[7]", "value": 24, "unit": "%"},
      {"measurement": "Percent of subjects demonstrating robust improvement in Vanderbilt ADHD score (at least 40% decrease)", "setting": "[8]", "value": 36, "unit": "%"},
      {"measurement": "Percent of subjects with improvement in Vanderbilt ADHD score (at least 25% decrease)", "setting": "[8]", "value": 54, "unit": "%"},
      {"measurement": "Percent of subjects completing the dose escalation to 400 mg bid that show improvement in Vanderbilt ADHD scores (at least 25% decrease)", "setting": "[9]", "value": 53, "unit": "%"},
      {"measurement": "Percent of subjects completing the dose escalation to 400 mg bid that show robust improvement in Vanderbilt ADHD scores (at least 40% decrease)", "setting": "[9]", "value": 35, "unit": "%"},
      {"measurement": "Percent of subjects demonstrating robust improvement in Vanderbilt ADHD score (at least 40% decrease)", "setting": "[10]", "value": 43, "unit": "%"},
      {"measurement": "Percent of subjects with improvement in Vanderbilt ADHD score (at least 25% decrease)", "setting": "[10]", "value": 68, "unit": "%"},
      {"measurement": "Percent of subjects completing the dose escalation to 400 mg bid that show improvement in Vanderbilt ADHD scores (at least 25% decrease)", "setting": "[11]", "value": 82, "unit": "%"},
      {"measurement": "Percent of subjects completing the dose escalation to 400 mg bid that show robust improvement in Vanderbilt ADHD scores (at least 40% decrease)", "setting": "[11]", "value": 47, "unit": "%"},
      {"measurement": "Percent of subjects with improvement in Vanderbilt ADHD score (at least 25% decrease)", "setting": "relative to pre-study (enrollment) baseline, Overall, Week 5, up to 400 mg bid, monohydrate", "value": "78% and 75-80%"},
      {"measurement": "Percent of subjects completing the dose escalation to 400 mg bid that show improvement in Vanderbilt ADHD scores (at least 25% decrease)", "setting": "[12]", "value": 56, "unit": "%"},
      {"measurement": "Percent of subjects completing the dose escalation to 400 mg bid that show robust improvement in Vanderbilt ADHD scores (at least 40% decrease)", "setting": "[12]", "value": 44, "unit": "%"},
      {"measurement": "Percent of subjects demonstrating robust improvement in Vanderbilt ADHD score (at least 40% decrease)", "setting": "[12]", "value": 35, "unit": "%"},
      {"measurement": "Percent of subjects with improvement in Vanderbilt ADHD score (at least 25% decrease)", "setting": "[12]", "value": 47, "unit": "%"},
      {"measurement": "Percent of subjects completing the dose escalation to 400 mg bid that show improvement in Vanderbilt ADHD scores (at least 25% decrease)", "setting": "[13]", "value": 89, "unit": "%"},
      {"measurement": "Percent of subjects completing the dose escalation to 400 mg bid that show robust improvement in Vanderbilt ADHD scores (at least 40% decrease)", "setting": "[13]", "value": 44, "unit": "%"},
      {"measurement": "Percent of subjects demonstrating robust improvement in Vanderbilt ADHD score (at least 40% decrease)", "setting": "[14]", "value": 50, "unit": "%"},
      {"measurement": "Percent of subjects with improvement in Vanderbilt ADHD score (at least 25% decrease)", "setting": "[14]", "value": 75, "unit": "%"},
      {"measurement": "Percent of subjects completing the dose escalation to 400 mg bid that show improvement in Vanderbilt ADHD scores (at least 25% decrease)", "setting": "[15]", "value": 89, "unit": "%"},
      {"measurement": "Percent of subjects completing the dose escalation to 400 mg bid that show robust improvement in Vanderbilt ADHD scores (at least 40% decrease)", "setting": "[15]", "value": 56, "unit": "%"},
      {"measurement": "Percent of subjects demonstrating robust improvement in Vanderbilt ADHD score (at least 40% decrease)", "setting": "relative to pre-study (enrollment) baseline, Tier 1, Week 4, up to 200 mg bid", "value": 56, "unit": "%"}
    ]}
  ]
}
